In ChEMBL document CHEMBL5537150, “Synthesis of melampomagnolide B derivatives as potential anti-Triple Negative Breast Cancer agents” (Eur J Med Chem, 2024):
Calls of active or inactive are those of the source. The calls are words filed in the database; no cut-off is given here.

Key:
[1] = system: MDA-MB-231; test: Antiproliferative activity against human MDA-MB-231 cells assessed as inhibition of cell growth incubated for 72 hrs by MTT assay; format: functional, cell-based; conditions: MDA-MB-231, 72 h
[2] = system: MDA-MB-468; test: Induction of apoptosis in human MDA-MB-468 cells at 1 uM incubated for 48 hrs by annexin-V-APC/PI staining based flow cytometric analysis (reference value: 5.65 +/- 2.76 %); format: functional
[3] = system: MDA-MB-468; test: Antimigratory activity in human MDA-MB-468 cells assessed as downregulation of N-cadherin protein expression incubated for 48 hrs by Western blotting analysis; format: functional, cell-based
[4] = system: MDA-MB-231; test: Induction of apoptosis in human MDA-MB-231 cells at 1 uM incubated for 48 hrs by annexin-V-APC/PI staining based flow cytometric analysis (reference value: 5.9 +/- 0.26 %); format: functional
[5] = system: MDA-MB-231; test: Inhibition of NF-kappaB signalling pathway in human MDA-MB-231 cells assessed as downregulation of p65 phosphorylation at 0.5 to 2 uM incubated for 48 hrs by Western blotting analysis; format: cell-based; conditions: dose 0.5-2 µM
[6] = system: MDA-MB-231; test: Induction of apoptosis in human MDA-MB-231 cells at 2 uM incubated for 48 hrs by annexin-V-APC/PI staining based flow cytometric analysis (reference value: 5.9 +/- 0.26 %); format: functional
[7] = system: MDA-MB-231; test: Inhibition of NF-kappaB signalling pathway in human MDA-MB-231 cells assessed as downregulation of nuclear p65 expression at 0.2 to 2 uM incubated for 48 hrs by Western blotting analysis; format: cell-based; conditions: dose 0.2-2 µM
[8] = system: MDA-MB-231; test: Inhibition of NF-kappaB signalling pathway in human MDA-MB-231 cells assessed as downregulation of IkappaBalpha phosphorylation at 0.5 to 2 uM incubated for 48 hrs by Western blotting analysis; format: cell-based; conditions: dose 0.5-2 µM
[9] = system: MDA-MB-231; test: Induction of apoptosis in human MDA-MB-231 cells at 0.2 uM incubated for 48 hrs by annexin-V-APC/PI staining based flow cytometric analysis (reference value: 5.9 +/- 0.26 %); format: functional
[10] = system: MDA-MB-468; test: Induction of apoptosis in human MDA-MB-468 cells at 5 uM incubated for 48 hrs by annexin-V-APC/PI staining based flow cytometric analysis (reference value: 5.65 +/- 2.76 %); format: functional
[11] = system: MDA-MB-231; test: Inhibition of NF-kappaB signalling pathway in human MDA-MB-231 cells assessed as inhibition of p65 nuclear translocation at 0.2 to 2 uM incubated for 48 hrs by Western blotting analysis; format: cell-based; conditions: dose 0.2-2 µM
[12] = system: MDA-MB-468; test: Antimigratory activity in human MDA-MB-468 cells assessed as reduction in number of migrated cells incubated for 48 hrs by crystal violet staining based transwell assay; format: functional, cell-based
[13] = system: MCF7; test: Antiproliferative activity against human MCF7 cells assessed as inhibition of cell growth incubated for 72 hrs by MTT assay; format: functional, cell-based; conditions: MCF7, 72 h
[14] = system: MDA-MB-231; test: Induction of apoptosis in human MDA-MB-231 cells assessed as upregulation of Bax protein expression incubated for 48 hrs by Western blotting analysis; format: functional, cell-based
[15] = system: SUM-159-PT; test: Antiproliferative activity against human SUM159 cells assessed as inhibition of cell growth incubated for 72 hrs by MTT assay; format: functional, cell-based
[16] = system: NIH3T3; test: Cytotoxicity against mouse 3T3 cells at 1 uM incubated for 72 hrs by MTT assay; format: toxicity, cell-based; conditions: nih3t3, 72 h
[17] = system: MDA-MB-468; test: Antiproliferative activity against human MDA-MB-468 cells assessed as inhibition of cell growth incubated for 72 hrs by MTT assay; format: functional, cell-based; conditions: MDA-MB-468, 72 h
[18] = system: MDA-MB-231; test: Induction of apoptosis in human MDA-MB-231 cells assessed as downregulation of BCL-2 protein expression incubated for 48 hrs by Western blotting analysis; format: functional, cell-based
[19] = system: MDA-MB-468; test: Induction of apoptosis in human MDA-MB-468 cells at 2 uM incubated for 48 hrs by annexin-V-APC/PI staining based flow cytometric analysis (reference value: 5.65 +/- 2.76 %); format: functional
[20] = system: MDA-MB-468; test: Antimigratory activity in human MDA-MB-468 cells assessed as downregulation of Vimentin protein expression incubated for 48 hrs by Western blotting analysis; format: functional, cell-based
[21] = system: MDA-MB-231; test: Antimigratory activity in human MDA-MB-231 cells assessed as downregulation of Vimentin protein expression incubated for 48 hrs by Western blotting analysis; format: functional, cell-based
[22] = system: MDA-MB-231; test: Induction of apoptosis in human MDA-MB-231 cells assessed as downregulation of MCL-1 protein expression incubated for 48 hrs by Western blotting analysis; format: functional, cell-based
[23] = system: MDA-MB-231; test: Inhibition of NF-kappaB signalling pathway in human MDA-MB-231 cells assessed as effect on total p65 protein level at 0.2 to 2 uM incubated for 48 hrs by Western blotting analysis; format: cell-based; conditions: dose 0.2-2 µM
[24] = system: MDA-MB-231; test: Antimigratory activity in human MDA-MB-231 cells assessed as reduction in number of migrated cells incubated for 48 hrs by crystal violet staining based transwell assay; format: functional, cell-based
[25] = system: MDA-MB-468; test: Induction of apoptosis in human MDA-MB-468 cells at 0.5 uM incubated for 48 hrs by annexin-V-APC/PI staining based flow cytometric analysis (reference value: 5.65 +/- 2.76 %); format: functional
[26] = system: MDA-MB-231; test: Induction of apoptosis in human MDA-MB-231 cells at 0.5 uM incubated for 48 hrs by annexin-V-APC/PI staining based flow cytometric analysis (reference value: 5.9 +/- 0.26 %); format: functional
[27] = system: 4T1; test: Antiproliferative activity against mouse 4T1 cells assessed as inhibition of cell growth incubated for 72 hrs by MTT assay; format: functional, cell-based; conditions: 4T1, 72 h
[28] = system: MDA-MB-231; test: Antimigratory activity in human MDA-MB-231 cells assessed as downregulation of N-cadherin protein expression incubated for 48 hrs by Western blotting analysis; format: functional, cell-based
[29] = system: MDA-MB-231; test: Induction of apoptosis in human MDA-MB-231 cells at 5 uM incubated for 48 hrs by annexin-V-APC/PI staining based flow cytometric analysis (reference value: 5.9 +/- 0.26 %); format: functional
[30] = system: MDA-MB-231; test: Induction of apoptosis in human MDA-MB-231 cells assessed as downregulation of BCL-xl protein expression incubated for 48 hrs by Western blotting analysis; format: functional, cell-based
[31] = system: MDA-MB-468; test: Induction of apoptosis in human MDA-MB-468 cells at 0.2 uM incubated for 48 hrs by annexin-V-APC/PI staining based flow cytometric analysis (reference value: 5.65 +/- 2.76 %); format: functional
[32] = system: MDA-MB-231; test: Inhibition of NF-kappaB signalling pathway in human MDA-MB-231 cells assessed as upregulation of cytoplasmic p65 expression at 0.2 to 2 uM incubated for 48 hrs by Western blotting analysis; format: cell-based; conditions: dose 0.2-2 µM

## C=C1C(=O)O[C@H]2[C@H]1C(COC(=O)CC1(CC(=O)Oc3ccc(-c4cc(=S)ss4)cc3)CCCC1)C/C=C\CC[C@@]1(C)O[C@@H]21 (stereo not given in full)
[1]
  IC50: 2.11 µM

## C=C1C(=O)O[C@H]2[C@H]1C(COC(=O)c1ccccc1C(=O)O)C/C=C\CC[C@@]1(C)O[C@@H]21 (stereo not given in full)
[1]
  IC50: > 50 µM

## C=C1C(=O)O[C@H]2[C@H]1CC/C(C(=O)OCCCCOc1ccc(-c3cc(=S)ss3)cc1)=C\CC[C@@]1(C)O[C@@H]21
[1]
  IC50: 2.47 µM

## C=C1C(=O)O[C@H]2[C@H]1C(COC(=O)CC(C)(C)CC(=O)Oc1ccc(-c3cc(=S)ss3)cc1)C/C=C\CC[C@@]1(C)O[C@@H]21 (stereo not given in full)
[1]
  IC50: 1.68 µM

## C=C1C(=O)O[C@H]2[C@H]1CC/C(C(=O)OCCOc1ccc(-c3cc(=S)ss3)cc1)=C\CC[C@@]1(C)O[C@@H]21
[1]
  IC50: 2.35 µM

## C=C1C(=O)O[C@H]2[C@H]1CC/C(C(=O)O)=C\CC[C@@]1(C)O[C@@H]21
[1]
  IC50: > 50 µM

## C=C1C(=O)O[C@H]2[C@H]1CC/C(C(=O)Oc1ccc(-c3cc(=S)ss3)cc1)=C\CC[C@@]1(C)O[C@@H]21
[1]
  IC50: 1.39 µM

## C=C1C(=O)O[C@H]2[C@H]1C(COC(=O)CCC(=O)O)C/C=C\CC[C@@]1(C)O[C@@]21C (stereo not given in full)
[1]
  IC50: > 50 µM

## C=C1C(=O)O[C@H]2[C@H]1C(COC(=O)CCCC(=O)O)C/C=C\CC[C@@]1(C)O[C@@H]21 (stereo not given in full)
[1]
  IC50: > 50 µM

## C=C1C(=O)O[C@H]2[C@H]1C(COC(=O)/C=C/c1ccccc1OCCc1ccc(-c3cc(=S)ss3)cc1)C/C=C\CC[C@@]1(C)O[C@@]21C (stereo not given in full)
[2]
  Activity: 4.87%
[3]
  Activity: Dose-Dependent Effect
[1]
  IC50: 1.07 µM
[4]
  Activity: 15.46%
[5]
  inhibition: Active
[6]
  Activity: 20.32%
[7]
  inhibition: Active
[8]
  inhibition: Active
[9]
  Activity: 6.85%
[10]
  Activity: 52.61%
[11]
  inhibition: Active
[12]
  Activity: Dose-Dependent Effect
[13]
  IC50: 1.81 µM
[14]
  Activity: Dose-Dependent Effect
[15]
  IC50: 1.06 µM
[16]
  Activity: Toxic
[17]
  IC50: 0.37 µM
[18]
  Activity: Dose-Dependent Effect
[19]
  Activity: 11.32%
[20]
  Activity: Dose-Dependent Effect
[21]
  Activity: Dose-Dependent Effect
[22]
  Activity: Dose-Dependent Effect
[23]
  inhibition: inactive
[24]
  Activity: Dose-Dependent Effect
[25]
  Activity: 4.3%
[26]
  Activity: 7.9%
[27]
  IC50: 2.85 µM
[28]
  Activity: Dose-Dependent Effect
[29]
  Activity: 49.35%
[30]
  Activity: Dose-Dependent Effect
[31]
  Activity: 5.8%
[32]
  inhibition: Active

## C=C1C(=O)O[C@H]2[C@H]1C(COC(=O)CCC(=O)Oc1ccc(-c3cc(=S)ss3)cc1)C/C=C\CC[C@@]1(C)O[C@@H]21 (stereo not given in full)
[1]
  IC50: 4.34 µM

## C=C1C(=O)O[C@H]2[C@H]1C(COC(=O)CC1(CC(=O)Oc3ccc(-c4cc(=S)ss4)cc3)CCCCC1)C/C=C\CC[C@@]1(C)O[C@@H]21 (stereo not given in full)
[1]
  IC50: 1.76 µM

## C=C1C(=O)O[C@H]2[C@H]1C(COC(=O)CC1(CC(=O)O)CCCCC1)C/C=C\CC[C@@]1(C)O[C@@H]21 (stereo not given in full)
[1]
  IC50: 12.8 µM

## C=C1C(=O)O[C@H]2[C@H]1C(COC(=O)CCCCC(=O)O)C/C=C\CC[C@@]1(C)O[C@@H]21 (stereo not given in full)
[1]
  IC50: > 50 µM

## C=C1C(=O)O[C@H]2[C@H]1C(COC(=O)CC1(CC(=O)O)CCCC1)C/C=C\CC[C@@]1(C)O[C@@H]21 (stereo not given in full)
[1]
  IC50: 35.8 µM

## C=C1C(=O)O[C@H]2[C@H]1CC/C(C(=O)OCCCOc1ccc(-c3cc(=S)ss3)cc1)=C\CC[C@@]1(C)O[C@@H]21
[1]
  IC50: 2.09 µM

## C=C1C(=O)O[C@H]2[C@H]1C(COC(=O)/C=C/c1ccc(OCc3ccc(-c4cc(=S)ss4)cc3)cc1)C/C=C\CC[C@@]1(C)O[C@@]21C (stereo not given in full)
[1]
  IC50: 6.11 µM

## C=C1C(=O)O[C@H]2[C@H]1C(COC(=O)CCCCC(=O)Oc1ccc(-c3cc(=S)ss3)cc1)C/C=C\CC[C@@]1(C)O[C@@H]21 (stereo not given in full)
[1]
  IC50: 6.2 µM

## C=C1C(=O)O[C@H]2[C@H]1C(COC(=O)c1cc3ccccc3cc1C(=O)Oc1ccc(-c3cc(=S)ss3)cc1)C/C=C\CC[C@@]1(C)O[C@@H]21 (stereo not given in full)
[1]
  IC50: 7.58 µM

## C=C1C(=O)O[C@H]2[C@H]1C(COC(=O)CC(C)(C)CC(=O)O)C/C=C\CC[C@@]1(C)O[C@@H]21 (stereo not given in full)
[1]
  IC50: 36.4 µM

## C=C1C(=O)O[C@H]2[C@H]1CC/C(CO)=C\CC[C@@]1(C)O[C@@H]21
[1]
  IC50: 3.84 µM
[13]
  IC50: 6.76 µM
[15]
  IC50: 7.45 µM
[17]
  IC50: 20 µM
[27]
  IC50: 5.88 µM

## C=C1C(=O)O[C@H]2[C@H]1C(COC(=O)c1cc3ccccc3cc1C(=O)O)C/C=C\CC[C@@]1(C)O[C@@H]21 (stereo not given in full)
[1]
  IC50: 4.96 µM

## Oc1ccc(-c2cc(=S)ss2)cc1
[1]
  IC50: > 50 µM

## C=C1C(=O)O[C@H]2[C@H]1C(COC(=O)CCCC(=O)Oc1ccc(-c3cc(=S)ss3)cc1)C/C=C\CC[C@@]1(C)O[C@@H]21 (stereo not given in full)
[1]
  IC50: 8.52 µM

## C=C1C(=O)O[C@H]2[C@H]1C(COC(=O)c1ccccc1C(=O)Oc1ccc(-c3cc(=S)ss3)cc1)C/C=C\CC[C@@]1(C)O[C@@H]21 (stereo not given in full)
[1]
  IC50: 2.91 µM
